Data from US6958341B2, “Pyrazolopyrimidines as CRF antagonists” (Bristol-Myers Squibb Pharma Company, priority 1999, dated 2005).

SMILES: CCC(CC)c1c(O)nn2c(-c3ccc(Cl)cc3Cl)c(C)cnc12 [Example 92, 7-(2,4-dichlorophenyl)-2-hydroxy-6-methyl-3-(3-pentyl)pyrazolo[1,5-a]pyrimidine]
- melting point: 227 to 228 °C
